Reference: US7384934B2, “Piperazine substituted aryl benzodiazepines” (Eli Lilly and Company, priority 2002, dated 2008)
Counter-ions that a name gives are not always drawn.

The compounds below were run against T1, Dopamine D2 receptor (Homo sapiens, UniProt P14416) (assay: Dopamine D2 receptor binding assay ([125I]iodospiperone)). Conditions: relative Ki scale of Table 5; read-out: Relative D2 Receptor Binding Affinity Ki.
T1 construct: purchased Receptor Biology (now owned by NEN) RBHD2CM
Protocol: The assay buffers used are 50 mM Tris-HCl pH 7.4, 120 mM NaCl, 5 mM KCl, 5 mM MgCl2, 1 mM EDTA for the Dopamine D2s receptor binding assay. […] The membranes used are from Receptor Biology (now owned by NEN), Cat # RBHD2CM for the D2 receptor.
Compounds are obtained as 10 mM stocks in 100% DMSO. They are diluted to 1 mM in 100% DMSO by adding 180 μL DMSO to 20 μL of stock in 96 well plates using a multidrop. […] This is done using a TECAN robot.
The radioligand is diluted in assay buffer to provide 0.1 nM for the D2 assay. Each vial of membranes is diluted up to 92 mL in assay buffer. The final assay volume is 250 μL consisting of 210 μl of diluted membranes, 20 μL of compound or 10% DMSO for total binding, and 20 μL of diluted radioligand. The compounds are transferred from drug dilution plates into coming 96 well assay plates using a 96 well Multimek pipettor. Radioligand and membranes are added to assay plates using multidrop pipettors. Non-specific binding is determined in wells containing a final concentration of 5 μM haloperidol. The final drug concentration range in half logs is from 10 μM down to 0.1 nM.
After addition of drug, membrane, and ligand, the plates are incubated for 2 hours at room temperature. During this time 96 well Millipore filter plates (MAFBNOB50) are soaked for a least 30 minutes with 200 μL per well of 0.5% polyethyleneimine.
The 0.5% PEI is removed from filterplate wells using a TiterTek MAP aspirator and 200 μL of the incubation mixture is transferred from the incubation plate to the filterplate after mixing. This transfer is done using the 96 tip Mutimek pipettor. After transfer to the filterplate filterplates are extracted and ished twice with 220 μL per well of cold buffer on the MAP aspirator. The peel away bottoms are removed from the filterplates and 60 μL per well of microscint 20 scintillation fluid is added per well using a multidrop. […]

T1 sequence (P14416 1-414 isoform P14416-2): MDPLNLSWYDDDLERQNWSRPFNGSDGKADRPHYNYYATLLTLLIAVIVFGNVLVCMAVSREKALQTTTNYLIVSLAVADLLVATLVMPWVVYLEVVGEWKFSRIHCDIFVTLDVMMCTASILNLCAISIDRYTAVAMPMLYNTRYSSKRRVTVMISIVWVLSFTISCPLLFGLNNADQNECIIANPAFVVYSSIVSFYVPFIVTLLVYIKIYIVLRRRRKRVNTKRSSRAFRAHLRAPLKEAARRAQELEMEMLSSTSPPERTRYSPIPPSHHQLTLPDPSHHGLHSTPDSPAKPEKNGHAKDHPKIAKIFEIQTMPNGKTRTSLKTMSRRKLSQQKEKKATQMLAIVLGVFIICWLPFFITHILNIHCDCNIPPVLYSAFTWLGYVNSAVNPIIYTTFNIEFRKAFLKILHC

`COC(C)C[C@H]1CN(C2=Nc3ccccc3Nc3sc(C)cc32)CCN1` (mixture of isomers) [Example 359, 10-[3(S)-(2(S)-Methoxypropyl)-piperazin-1-yl]-2-methyl-4H-3-thia-4,9-diazabenzo[f]azulene and 10-[3(S)-(2(R)-Methoxypropyl)-piperazin-1-yl]-2-methyl-4H-3-thia-4,9-diazabenzo[f]azulene] and `COCC[C@H]1CN(C2=Nc3ccccc3Nc3sc(C)cc32)CCN1` [Example 242, (S)-10-[3-(2-Methoxyethyl)-piperazin-1-yl]-2-methyl-4H-3-thia-4,9-diazabenzo[f]azulene hydrochloride] fall in the same range of Ki: 10 to 100 nM for the first, 10 to 100 nM for the second.

First: COC(C)C[C@H]1CN(C2=Nc3ccccc3Nc3sc(C)cc32)CCN1C (mixture of isomers) [Example 360, 10-[3(S)-(2(S)-Methoxypropyl)-4-methylpiperazin-1-yl]-2-methyl-4H-3-thia-4,9-diazabenzo[f]azulene dihydrochloride and 10-[3(S)-(2(R)-Methoxypropyl)-4-methylpiperazin-1-yl]-2-methyl-4H-3-thia-4,9-diazabenzo[f]azulene dihydrochloride]
Second: COCC[C@H]1CN(C2=Nc3ccccc3Nc3sc(C)cc32)CCN1C [Example 267, (s)-10-[3-(2-Methoxyethyl)-4-methylpiperazin-1-yl]-2-methyl-4H-3-thia-4,9-diazabenzo[f]azulene dihydrochloride]
The Ki of the first is higher: 100 to 1000 nM for the first, 10 to 100 nM for the second. The second binds more tightly here.

Compared with `COC(C)C[C@H]1CN(C2=Nc3ccccc3Nc3sc(C(C)C)nc32)CCN1` (mixture of isomers) [Example 361, 10-[3(S)-(2(S)-Methoxy-propyl)-piperazin-1-yl]-2-isopropyl-4H-3-thia-1,4,9-triazabenzo[f]azulene and 10-[3(S)-(2(R)-Methoxy-propyl)-piperazin-1-yl]-2-isopropyl-4H-3-thia-1,4,9-triazabenzo[f]azulene], `CCOCC[C@H]1CN(C2=Nc3ccccc3Nc3sc(C(C)C)nc32)CCN1` [Example 309, (S)-10-[3-(2-Ethoxyethyl)-piperazin-1-yl]-2-isopropyl-4H-3-thia-1,4,9-triazabenzo[f]azulene] is higher in Ki: less than 10 nM for the first, 10 to 100 nM for the second.

Compared with `COCC[C@H]1CN(C2=Nc3ccccc3Nc3cc(C)ccc32)CCN1` [Example 198, (S)-3-Methyl-11-[3-(2-methoxy-ethyl)-piperazin-1-yl]-5H-dibenzo[b,e][1,4]diazepine], `CCc1nc2c(s1)Nc1ccccc1N=C2N1CCN[C@@H](CCOC)C1` [Example 303, (S)-10-[3-(2-Methoxy-ethyl)-piperazin-1-yl]-2-ethyl-4H-3-thia-1,4,9-triaza-benzo[f]azulene] is lower in Ki: greater than 1000 nM for the first, less than 10 nM for the second. The second binds more tightly here.

First: CCOCC[C@H]1CN(C2=Nc3ccccc3Nc3sc(C)cc32)CCN1C [Example 268, (S)-10-[3-(2-Ethoxyethyl)-4-methyl-piperazin-1-yl]-2-methyl-4H-3-thia-4,9-diazabenzo[f]azulene dihydrochloride]
Second: CCOCC[C@H]1CN(C2=Nc3ccccc3Nc3sc(C)nc32)CCN1C [Example 321, (S)-10-[3-(2-Ethoxyethyl)-4-methyl-piperazin-1-yl]-2-methyl-4H-3-thia-1,4,9-triazabenzo[f]azulene dihydrochloride]
The Ki of the first is lower: 10 to 100 nM for the first, 100 to 1000 nM for the second.

`Cc1cc2c(s1)Nc1ccccc1N=C2N1CCN(C)[C@@H](CCOc2ccccc2)C1` [Example 269, (S)-10-[4-Methyl-3-(2-phenoxyethyl)piperazin-1-yl]-2-methyl-4H-3-thia-4,9-diazabenzo[f]azulene dihydrochloride] and `COCC[C@H]1CN(C2=Nc3ccccc3Nc3sc(C)nc32)CCN1C` [Example 320, (S)-10-[3-(2-Methoxyethyl)-4-methylpiperazin-1-yl]-2-methyl-4H-3-thia-1,4,9-triazabenzo[f]azulene dihydrochloride] fall in the same range of Ki: 10 to 100 nM for the first, 10 to 100 nM for the second.

First: CCOCC[C@H]1CN(C2=Nc3ccccc3Nc3sc(C)nc32)CCN1 [Example 302, (S)-10-[3-(2-Ethoxyethyl)-piperazin-1-yl]-2-methyl-4H-3-thia-1,4,9-triazabenzo[f]azulene]
Second: CCCc1nc2c(s1)Nc1ccccc1N=C2N1CCN[C@@H](CCOC)C1 [Example 304, (S)-10-[3-(2-Methoxy-ethyl)-piperazin-1-yl]-2-propyl-4H-3-thia-1,4,9-triaza-benzo[f]azulene]
The Ki of the first is higher: 10 to 100 nM for the first, less than 10 nM for the second. The second binds more tightly here.

First: CCCCc1nc2c(s1)Nc1ccccc1N=C2N1CCN[C@@H](CCOC)C1 [Example 305, (S)-10-[3-(2-Methoxy-ethyl)-piperazin-1-yl]-2-butyl-4H-3-thia-1,4,9-triaza-benzo[f]azulene]
Second: COCC[C@H]1CN(C2=Nc3ccccc3Nc3sc(CO)nc32)CCN1 [Example 312, (S)-10-[3-(2-Methoxy-ethyl)-piperazin-1-yl]-4H-3-thia-1,4,9-triaza-benzo[f]azulene-2-yl-methanol]
The Ki of the first is lower: 10 to 100 nM for the first, 100 to 1000 nM for the second. The first binds more tightly here.

First: CCOC(=O)c1nc2c(s1)Nc1ccccc1N=C2N1CCN[C@@H](CCOC)C1 [Example 313, (S)-10-[3-(2-Methoxy-ethyl)-piperazin-1-yl]-4H-3-thia-1,4,9-triaza-benzo[f]azulene-2-carboxylic acid ethyl ester]
Second: COCC[C@H]1CN(C2=Nc3ccccc3Nc3sc(C(F)F)nc32)CCN1 [Example 316, (S)-10-[3-(2-Methoxy-ethyl)-piperazin-1-yl]-2-difluoromethyl-4H-3-thia-1,49-triaza-benzo[f]azulene]
The Ki of the first is higher: 100 to 1000 nM for the first, less than 10 nM for the second.

`COCC[C@H]1CN(C2=Nc3ccccc3Nc3sc(C(F)(F)F)nc32)CCN1` [Example 314, (S)-10-[3-(2-Methoxy-ethyl)-piperazin-1-yl]-2-trifluoromethyl-4H-3-thia-1,4,9-triaza-benzo[f]azulene] and `COCC[C@H]1CN(C2=Nc3ccccc3Nc3sc(CCC(F)(F)F)nc32)CCN1` [Example 318, (S)-10-[3-(2-Methoxy-ethyl)-piperazin-1-yl]-2-(3,3,3-trifluoro-propyl)-4H-3-thia-1,4,9-triaza-benzo[f]azulene dihydrochloride] cannot be ordered by Ki: less than 10 nM for the first, less than 10 nM for the second.

Compared with `Cc1nc2c(s1)Nc1ccccc1N=C2N1CCN(C)[C@@H](CCO)C1` [Example 319, (S)-2-[1-Methyl-4-(2-methyl-4H-3-thia-1,4,9-triazabenzo[f]azulene-10-yl)piperazin-2-yl]ethanol dihydrochloride], `CC(C)c1nc2c(s1)Nc1ccccc1N=C2N1CCN(C)[C@@H](CCO)C1` [Example 326, (S)-2-[4-(2-Isopropyl-4H-3-thia-1,49-triazabenzo[f]azulene-10-yl)-1-methylpiperazin-2-yl]ethanol] is lower in Ki: 10 to 100 nM for the first, less than 10 nM for the second.

`CCc1nc2c(s1)Nc1ccccc1N=C2N1CCN(C)[C@@H](CCOC)C1` [Example 322, (S)-10-[3-(2-Methoxy-ethyl)-4-methyl-piperazin-1-yl]-2-ethyl-4H-3-thia-1,49-triaza-benzo[f]azulene dihydrochloride] and `CCCc1nc2c(s1)Nc1ccccc1N=C2N1CCN(C)[C@@H](CCOC)C1` [Example 323, (S)-10-[3-(2-Methoxy-ethyl)-4-methyl-piperazin-1-yl]-2-propyl 4H-3-thia-1,4,9-triaza-benzo[f]azulene dihydrochloride] fall in the same range of Ki: 10 to 100 nM for the first, 10 to 100 nM for the second.

`CCCCc1nc2c(s1)Nc1ccccc1N=C2N1CCN(C)[C@@H](CCOC)C1` [Example 324, (S)-10-[3-(2-Methoxy-ethyl)-4-methyl-piperazin-1-yl]-2-butyl 4H-3-thia-1,4,9-triaza-benzo[f]azulene] gave a Ki of 10 to 100 nM.
